Assay results from US20250101017A1, “SALT CRYSTAL FORM AND FREE BASE CRYSTAL FORM OF KINASE INHIBITOR” (CYTOSINLAB THERAPEUTICS CO., LTD., priority 2022, published 2025).
≈ marks a conversion by molar mass, not a printed value.

Columns and labels:
Type in all cases: physicochemical
[1] = Solid stability of crystal forms (80° C., light exposure, 25° C./60% RH, 40° C./75% RH); purity by liquid chromatography and XRPD of the solids; conditions: for Crystal form: XRPD
Protocol: A certain amount of API and malate crystal form VII-A were weighed and added into a liquid phase vial, and a total of 9 parallels were prepared. The 9 parallels were placed separately in 80° C. (open); 25° C., 60% RH (open); 40° C., 75% RH (open); and light stability box closed). The stabilities under conditions of: 80° C. for one day, light exposure for 10 days, as well as 25° C., 60% RH and 40° C., 75% RH for one and two weeks were tested, and the XRPD of the solids were measured.
A certain amount of crystal form B was weighed and added into a liquid phase vial, and a total of 9 parallels were prepared. 9 parallels were placed separately in 80° C.; 25° C., 60% RH, 40° C., 75% RH; and light stability boxe.

[2] = Solubility at 37° C. in buffer solutions with different pH (about 10 mg in 1 ml, 2 h and 24 h); filtrate concentration and pH, XRPD of remaining solid; conditions: for solubility at 2 h / solubility at 24 h: 37 °C, thermodynamic from solid; for solubility at 2 h: read-out: Solubility at 37° C. (mg/ml) 2 h; for solubility at 24 h: read-out: Solubility at 37° C. (mg/ml) 24 h; for pH (24 h): filtrate
Protocol: Approximately 10 mg of malate crystal form VII-A and free base Form A were weighed separately, and 1 ml of buffer solutions with different pH were added to make the solution supersaturated, and the mixtures were stirred at 37° C. for 2 h and 24 hours. The samples were filtered, and the filtrates were measured to determine the concentration and pH value, and the remaining solid was subjected to XRPD determination. The specific results were as follows: […]

[3] = Solubility of crystal form Form T in different solutions at 37° C. (about 60 mg in 2 mL, 2 h and 24 h; HPLC, pH, XRPD)
Protocol: Approximately 60 mg of the sample was weighed and added into a 4 mL bottle, and 2 mL of different solvents (water, pH 1.0, 3.0, 5.0, 7.0, 9.0, FaSSIF, FeSSIF, and SGF) were added and the mixtures were stirred at 37° C. for 24 h after adding magnetic stirring bar. Samples were taken at 2 and 24 h respectively. After filtration, the sample concentration in the filtrate was tested by HPLC, and the pH value of the filtrate and the XRPD of the remaining solid were also measured. The measured solubility of the sample in different solutions was as follows.

With `CCc1nc2c(N)ncc(-c3ccc(N4CCC(N5CCN(CC)CC5)CC4)c(OC)c3)c2nc1NC1CCOCC1` [Malate crystal form VII-A] the “Degradation (%)” value ([1]; 25° C., 60% RH (open), 1 week) was 0.03%, the “Purity (%)” value ([1]; 25° C., 60% RH (open), 1 week) was 95.81% and the Crystal form ([1]; 25° C., 60% RH (open), 1 week) was “Unchanged”. The “Degradation (%)” value ([1]; 25° C., 60% RH (open), 2 weeks) was 0.32%, the “Purity (%)” value ([1]; 25° C., 60% RH (open), 2 weeks) was 95.52% and the Crystal form ([1]; 25° C., 60% RH (open), 2 weeks) was “Unchanged”. For the same molecule, the “Degradation (%)” value ([1]; 40° C., 75% RH (open), 1 week) was 0.13%, the “Purity (%)” value ([1]; 40° C., 75% RH (open), 1 week) was 95.71% and the Crystal form ([1]; 40° C., 75% RH (open), 1 week) was “Unchanged”. For the same molecule, the “Degradation (%)” value ([1]; 40° C., 75% RH (open), 2 weeks) was 1.06%, the “Purity (%)” value ([1]; 40° C., 75% RH (open), 2 weeks) was 94.78% and the Crystal form ([1]; 40° C., 75% RH (open), 2 weeks) was “Unchanged”. For the same molecule, the “Degradation (%)” value ([1]; 80° C. (open), 1 day) was 0.62%, the “Purity (%)” value ([1]; 80° C. (open), 1 day) was 95.22% and the Crystal form ([1]; 80° C. (open), 1 day) was “Unchanged”. The “Degradation (%)” value ([1]; Light contral, 10 days) was 0.05%, the “Purity (%)” value ([1]; Light contral, 10 days) was 95.79% and the Crystal form ([1]; Light contral, 10 days) was “Unchanged”. The “Degradation (%)” value ([1]; Light exposure, 10 days) was 6.67%, the “Purity (%)” value ([1]; Light exposure, 10 days) was 89.17% and the Crystal form ([1]; Light exposure, 10 days) was “Unchanged”. For the same molecule, the “Purity (%)” value ([1]; initial) was 95.84%, the Degradation ([1]; light exposure and 40° C., 75% RH) was “varying degrees of degradation” and the solubility at 2 h ([2]; FeSSIF, fessif, medium FeSSIF, 2 h) was over 10 mg/mL. The solubility at 24 h ([2]; FeSSIF, fessif, medium FeSSIF, 24 h) was over 10 mg/mL, the solubility at 2 h ([2]; SGF, simulated gastric fluid, medium SGF, 2 h) was over 10 mg/mL and the solubility at 24 h ([2]; SGF, simulated gastric fluid, medium SGF, 24 h) was over 10 mg/mL. The “pH (24 h)” value ([2]; medium FaSSIF) was 6.524, the “pH (24 h)” value ([2]; medium FeSSIF) was 5.796 and the “pH (24 h)” value ([2]; medium H2O) was 7.026. For the same molecule, the “pH (24 h)” value ([2]; medium SGF) was 1.644, the “pH (24 h)” value ([2]; medium pH 1.2) was 1.605 and the “pH (24 h)” value ([2]; medium pH 3.0) was 4.601. The “pH (24 h)” value ([2]; medium pH 4.5) was 5.468, the “pH (24 h)” value ([2]; medium pH 6.8) was 6.775 and the “pH (24 h)” value ([2]; medium pH 7.4) was 7.389. The “Solubility at 37° C. (mg/ml) 2 h” value ([2]; medium FaSSIF, 2 h) was over 10 mg/mL, the “Solubility at 37° C. (mg/ml) 24 h” value ([2]; medium FaSSIF, 24 h) was over 10 mg/mL and the “Solubility at 37° C. (mg/ml) 2 h” value ([2]; medium H2O, 2 h) was over 10 mg/mL. The “Solubility at 37° C. (mg/ml) 24 h” value ([2]; medium H2O, 24 h) was over 10 mg/mL, the “Solubility at 37° C. (mg/ml) 2 h” value ([2]; medium pH 1.2, 2 h) was over 10 mg/mL and the “Solubility at 37° C. (mg/ml) 24 h” value ([2]; medium pH 1.2, 24 h) was over 10 mg/mL. For the same molecule, the “Solubility at 37° C. (mg/ml) 2 h” value ([2]; medium pH 3.0, 2 h) was over 10 mg/mL, the “Solubility at 37° C. (mg/ml) 24 h” value ([2]; medium pH 3.0, 24 h) was over 10 mg/mL and the “Solubility at 37° C. (mg/ml) 2 h” value ([2]; medium pH 4.5, 2 h) was over 10 mg/mL. For the same molecule, the “Solubility at 37° C. (mg/ml) 24 h” value ([2]; medium pH 4.5, 24 h) was over 10 mg/mL, the “Solubility at 37° C. (mg/ml) 2 h” value ([2]; medium pH 6.8, 2 h) was over 10 mg/mL and the “Solubility at 37° C. (mg/ml) 24 h” value ([2]; medium pH 6.8, 24 h) was over 10 mg/mL. The “Solubility at 37° C. (mg/ml) 2 h” value ([2]; medium pH 7.4, 2 h) was over 10 mg/mL and the “Solubility at 37° C. (mg/ml) 24 h” value ([2]; medium pH 7.4, 24 h) was over 10 mg/mL.

`CCc1nc2c(N)ncc(-c3ccc(N4CCC(N5CCN(CC)CC5)CC4)c(OC)c3)c2nc1NC1CCOCC1` [Form T, 3-ethyl-8-(4-(4-(4-ethylpiperazin-1-yl)piperidin-1-yl)-3-methoxyphenyl)-N2-(tetrahydro-2H-pyran-4-yl) pyridino [3,4-b]pyrazine-2,5-diamine] showed a pH ([3]; FaSSIF, filtrate, 2 h) of 6.72, a pH ([3]; FaSSIF, filtrate, 24 h) of 6.73 and a pH ([3]; FeSSIF, filtrate, 2 h) of 6.50. For the same molecule, the pH ([3]; FeSSIF, filtrate, 24 h) was 6.50, the pH ([3]; SGF, filtrate, 2 h) was 6.20 and the pH ([3]; SGF, filtrate, 24 h) was 6.22. For the same molecule, the “pH of the solution compared to the initial pH value” ([3]; other solvents (water, pH 7.0, pH 9.0, FaSSIF)) was “did not change significantly”, the “crystal form of remaining solid” value ([3]; other solvents (water, pH 7.0, pH 9.0, FaSSIF), XRPD) was “did not change” and the pH ([3]; pH 1.0, filtrate, 2 h) was 5.13. For the same molecule, the pH ([3]; pH 1.0, filtrate, 24 h) was 5.17, the “pH of the filtrate compared to the initial pH value of the buffer solution” value ([3]; pH 1.0, pH 3.0, pH 5.0, FeSSIF, and SGF) was “significant changes” and the solubility at 2 h ([3]; pH 1.0 solution, simulated gastric fluid, thermodynamic from solid, pH 1.0, 37° C., 2 h) was 28000 µg/mL (≈ 48.7 mM). It also gave a solubility at 24 h ([3]; pH 1.0 solution, simulated gastric fluid, thermodynamic from solid, pH 1.0, 37° C., 24 h) of 29300 µg/mL (≈ 51 mM), a pH ([3]; pH 3.0, filtrate, 2 h) of 6.51 and a pH ([3]; pH 3.0, filtrate, 24 h) of 6.52. For the same molecule, the solubility at 2 h ([3]; pH 3.0 solution, aqueous buffer, thermodynamic from solid, pH 3.0, 37° C., 2 h) was 23100 µg/mL (≈ 40.2 mM), the solubility at 24 h ([3]; pH 3.0 solution, aqueous buffer, thermodynamic from solid, pH 3.0, 37° C., 24 h) was 23200 µg/mL (≈ 40.4 mM) and the pH ([3]; pH 5.0, filtrate, 2 h) was 6.66. For the same molecule, the pH ([3]; pH 5.0, filtrate, 24 h) was 6.67, the solubility ([3]; pH 5.0 solution, aqueous buffer, thermodynamic from solid, 37° C., pH 5.0) was about 8000 µg/mL (≈ 13.9 mM) and the solubility at 2 h ([3]; pH 5.0 solution, aqueous buffer, thermodynamic from solid, pH 5.0, 37° C., 2 h) was 8370 µg/mL (≈ 14.6 mM). The solubility at 24 h ([3]; pH 5.0 solution, aqueous buffer, thermodynamic from solid, pH 5.0, 37° C., 24 h) was 8170 µg/mL (≈ 14.2 mM), the pH ([3]; pH 7.0, filtrate, 2 h) was 6.99 and the pH ([3]; pH 7.0, filtrate, 24 h) was 6.98. For the same molecule, the solubility at 2 h ([3]; pH 7.0 solution, aqueous buffer, thermodynamic from solid, pH 7.0, 37° C., 2 h) was 60 µg/mL (≈ 0.104 mM), the solubility at 24 h ([3]; pH 7.0 solution, aqueous buffer, thermodynamic from solid, pH 7.0, 37° C., 24 h) was 60 µg/mL (≈ 0.104 mM) and the pH ([3]; pH 9.0, filtrate, 2 h) was 8.77. It also gave a pH ([3]; pH 9.0, filtrate, 24 h) of 8.79, a solubility at 2 h ([3]; pH 9.0 solution, aqueous buffer, thermodynamic from solid, pH 9.0, 37° C., 2 h) of 2 µg/mL (≈ 0.00348 mM) and a solubility at 24 h ([3]; pH 9.0 solution, aqueous buffer, thermodynamic from solid, pH 9.0, 37° C., 24 h) of 2 µg/mL (≈ 0.00348 mM). For the same molecule, the solubility at 2 h ([3]; simulated gastric fluid, thermodynamic from solid, SGF, 37° C., 2 h) was 27600 µg/mL (≈ 48.1 mM), the solubility at 24 h ([3]; simulated gastric fluid, thermodynamic from solid, SGF, 37° C., 24 h) was 27300 µg/mL (≈ 47.5 mM) and the solubility ([3]; solutions: pH 1.0, thermodynamic from solid, 37° C., pH 1.0, pH 3.0, FeSSIF, and SGF) was over 18000 µg/mL. The solubility ([3]; thermodynamic from solid, 37° C., water, pH 7.0, pH 9.0, and FaSSIF) was under 700 µg/mL, the solubility at 2 h ([3]; thermodynamic from solid, FaSSIF, 37° C., 2 h) was 670 µg/mL (≈ 1.17 mM) and the solubility at 24 h ([3]; thermodynamic from solid, FaSSIF, 37° C., 24 h) was 700 µg/mL (≈ 1.22 mM). For the same molecule, the solubility at 2 h ([3]; thermodynamic from solid, FeSSIF, 37° C., 2 h) was 18900 µg/mL (≈ 32.9 mM), the solubility at 24 h ([3]; thermodynamic from solid, FeSSIF, 37° C., 24 h) was 18700 µg/mL (≈ 32.5 mM) and the solubility at 2 h ([3]; thermodynamic from solid, water, 37° C., 2 h) was 2 µg/mL (≈ 0.00348 mM). For the same molecule, the solubility at 24 h ([3]; thermodynamic from solid, water, 37° C., 24 h) was 3 µg/mL (≈ 0.00522 mM), the pH ([3]; water, filtrate, 2 h) was 7.20 and the pH ([3]; water, filtrate, 24 h) was 7.12.
